Test results from patent US20080015189A1, “Antimicrobial photoinactivation using chalcogen analogs of benzo(A)phenoxazinium dyes” (The General Hospital Corporation, priority 2006, published 2008).

Columns and labels:
[1] = test system: Enterococcus faecalis (ATCC 29212); test: Photodynamic inactivation of E. faecalis (survival fraction by CFU after red light); assay type: cell-based; conditions: 2 μM dye
Text: (§1) The microorganisms studied were Escherichia coli (ATCC 25922), Enterococcus faecalis (ATCC 29212), and Candida albicans (ATCC 18804). The microorganism species chosen to evaluate the photoactivities of the dyes in the present study are important pathogens in the type of infections, such as wounds and burns, likely to be amenable to photodynamic therapy (PDT). E. faecalis is typical of Enterococci that frequently develop vancomycin resistance and are important nocosomial pathogens in post-surgical wounds and burns.^42 Although E. coli is generally thought of as an intestinal or urinary tract pathogen, there is increasing concern about its presence in wound infections and its ability to develop extended spectrum beta-lactamase resistance.^43,44 C. albicans is increasingly found in nocosomial infections in burns^45 and, to a lesser extent, in surgical wounds.^46
(§2) Cells were grown at 37° C. in aerobic conditions in a shaker at 150 rpm. Brain-heart infusion broth (Difco, BD Diagnostic Systems, Sparks, Md.) was used for E. coli and E. faecalis, YM medium (Difco) was used for C. albicans. Exponential cultures obtained by reculturing stationary overnight precultures were used for all experiments. E. coli and E. faecalis were grown in fresh medium for approximately 1 h to a density of 10^8 cells/mL; the OD values at 650 nm were 0.6. C. albicans was grown for approximately 4 h to approximate density of 10^7 cells/mL corresponding to an OD of 6 at 650 nm (ten fold dilution measured). Exact cell numbers were confirmed by counting colony forming units obtained after serial dilution on square BHI (or YM for Candida) agar plates.
(§3) Stock solutions (2 mM) of the three chalcogen dyes were prepared in water and stored at 4° C. in the dark for no longer than 1 month before use. A non-coherent light source with interchangeable fiber bundles (LumaCare, London, UK) was employed. Thirty-nm band pass filters allowed total powers of roughly 1 W to be obtained from 630+/−15 nm for EtNBA (1), 652+/−15 nm for EtNBS (2), and 660+/−15 nm for EtNBSe (3).
(§4) Suspensions of microorganisms were incubated for 10 minutes with photosensitizer in the dark at room temperature. Unbound photosensitizer was washed out by centrifugation of the mixture of dye and microorganisms for 6 minutes at 1550g, followed by resuspension of washed pellets in 10 mL PBS without Ca^++/Mg^++. Aliquots (200 μL) of these suspensions were used for photodynamic inactivation (PDI) experiments; the remaining suspensions were centrifuged again, and the pellets were dissolved in 3 mL 10% SDS for at least 24 hours. These suspensions were used for photosensitizer uptake measurement. The fluorescence of dissolved pellets was measured on a spectrofluorimeter (FluoroMax3, SPEX Industries, Edison, N.J.). For EtNBA (1), the excitation wavelength was 625 nm, and the emission spectra of the solution were recorded from 630 to 750 nm. For EtNBS (2), the excitation wavelength was 645 nm, and the range for emission was 650 to 750nm. For EtNBSe (3), the excitation wavelength was 655 nm, and the emission was recorded in the range from 660 to 750 nm. The fluorescence was calculated from the height of the peaks recorded. Calibration curves were made from pure photosensitizer dissolved in 10% SDS and used for determination of sensitizer concentration in the suspension. Uptake values were obtained by dividing the number of nmol of sensitizer in the dissolved pellet by the number of colony-forming units (CFU) obtained by serial dilutions and the number of photosensitizer molecules/cell calculated using Avogadro's number.
Illumination was performed either after or before excess dye was washed out. Aliquots of 200 μL of cell suspension were placed in 96-well plates and illuminated with appropriate light at room temperature. Fluences ranged from 0 to 80 Jcm^−2 at an irradiance of 60-100 mWcm^−2. Exact power was measured with a laser power meter (model FM/GS, Coherent, Santa Clara, Calif.).

[2] = test system: Enterococcus faecalis (ATCC 29212); test: Dye uptake and binding by microbial cells, E. faecalis (fluorescence of SDS-dissolved pellets); assay type: cell-based; conditions: 2 μM dye; for cell uptake (molecules per cell), rank order: 10 minute incubation, wash
Description: as §4
(§5) In order to do so, the uptake of dye was measured in terms of molecules per cell by carrying out 10 minute incubations with the same concentration of dyes that was used for photoinactivation, followed by a wash to remove residual incubating solution.
(§6) The bacterial pellets resulting from the incubation with photosensitizer were dissolved in 10% SDS to give a homogeneous solution, and comparison of the resulting fluorescence intensities with a calibration curve prepared with known concentrations of dye in the same solvent yielded the amount of dye in the pellet. […] For the fungus C. albicans, an even higher concentration of dye (20 μM) was used, because the eukaryotic cells are ten times bigger than the prokaryotic bacterial cells.

[3] = in vivo; cited from earlier work
[4] = Absorption and fluorescence spectra, fluorescence quantum yield; conditions: for λfl(nm), fluorescence maximum: in ethanol; for λabs(nm), absorption maximum: in ethanol containing 0.1% acetic acid; for Φfl, absolute fluorescence quantum yield: relative to Cresyl Violet standard at 25° C.
Description: UV/visible absorption spectra were recorded using an HP 8453 spectrophotometer. Corrected fluorescence spectra were recorded using a SPEX Fluorolog2 (solvent measurements) or a FluoroMax3 (microorganism measurements), SPEX Industries, Edison, N.J. Fluorescence quantum yields were measured relative to Cresyl Violet standard at 25° C.^32 Quantum yields for ^1O2 formation were determined by measuring the ^1O2-mediated bleaching of 1,3-diphenylisobenzofuran^12 relative to Methylene Blue (0.50)^33 at 25° C. ^1H NMR spectra were obtained using a Varian 400 MHz spectrometer with TMS as internal standard.

[5] = test system: Escherichia coli (ATCC 25922); test: Photodynamic inactivation of E. coli (survival fraction by CFU after red light); assay type: cell-based; conditions: 5 μM dye
Text: as §1, §2, §3
as §4, with “For EtNBS (2), the excitation wavelength was 645 nm, and the range for emission was 650 to 750nm.” left out, “Calibration curves were made from pure photosensitizer dissolved in 10% SDS and used for determination of sensitizer concentration in the suspension.” left out
(§7) Illumination was performed either after or before excess dye was washed out. […] Exact power was measured with a laser power meter (model FM/GS, Coherent, Santa Clara, Calif.).

[6] = Quantum yield of singlet oxygen formation (1,3-diphenylisobenzofuran bleaching); assay type: physicochemical; conditions: 1,3-diphenylisobenzofuran method, relative to Methylene Blue, 25° C.
Text: All solvents were reagent grade and used as received.
(§8) The relative photoactivities of the three photosensitizers studied herein were gauged by their abilities to generate singlet oxygen (^1O2) when illuminated with a beam of red light having an adjusted intensity such that each dye absorbed the same number of photons per unit time. […] Finally, because of the relevance of lipophilicity to the present studies, the partition coefficients for the PS between 2-octanol and phosphate-buffered saline (pH=7.4) are listed^18.

[7] = test system: Escherichia coli (ATCC 25922); test: Dye uptake and binding by microbial cells, E. coli (fluorescence of SDS-dissolved pellets); assay type: cell-based; conditions: 5 μM dye; for cell uptake (molecules per cell), rank order: 10 minute incubation, wash
Description: as §4, §5, §6

[8] = test system: Candida albicans (ATCC 18804); test: Photodynamic inactivation of C. albicans (survival fraction by CFU after red light); assay type: cell-based; conditions: 20 μM dye, wash
Text: as §1
Cells were grown at 37° C. in aerobic conditions in a shaker at 150 rpm. […] C. albicans was grown for approximately 4 h to approximate density of 10^7 cells/mL corresponding to an OD of 6 at 650 nm (ten fold dilution measured). […]
Suspensions of microorganisms were incubated for 10 minutes with photosensitizer in the dark at room temperature. […] The fluorescence of dissolved pellets was measured on a spectrofluorimeter (FluoroMax3, SPEX Industries, Edison, N.J.). For EtNBA (1), the excitation wavelength was 625 nm, and the emission spectra of the solution were recorded from 630 to 750 nm. […] For EtNBSe (3), the excitation wavelength was 655 nm, and the emission was recorded in the range from 660 to 750 nm. The fluorescence was calculated from the height of the peaks recorded. […] Uptake values were obtained by dividing the number of nmol of sensitizer in the dissolved pellet by the number of colony-forming units (CFU) obtained by serial dilutions and the number of photosensitizer molecules/cell calculated using Avogadro's number.
as §7

[9] = Partition coefficient between 2-octanol and pH 7.4 buffered saline; assay type: physicochemical; conditions: for LogP, partition coefficient: pH 7.4
Text: as §8

[10] = test system: Candida albicans (ATCC 18804); test: Dye uptake and binding by microbial cells, C. albicans (fluorescence of SDS-dissolved pellets); assay type: cell-based; conditions: 20 μM dye
Description: as §4, §5, §6

[11] = reference standard value, 25° C.; cited from earlier work

Molecule | comparison of killing curves with and without a wash [1] | cell uptake (molecules per cell), rank order [2] | toxicity in the dark [3] | λfl(nm), fluorescence maximum [4] [nm] | λabs(nm), absorption maximum [4] [nm] | Φfl, absolute fluorescence quantum yield [4] | 1O2, absolute quantum yield for singlet oxygen formation [6] | fraction of total dye added that was bound to the cells [7] | cell uptake (molecules per cell), rank order [7] | LogP, partition coefficient [9] | fraction of total dye added that was bound to the cells [10] | other results
5-ethylamino-9-diethylaminobenzo[a]phenothiazinium [Dye 2] | the two curves are almost identical | EtNBSe (3)>EtNBS (2)>EtNBA (1) | little or no toxicity in the dark | 693 | 654 | 0.21 | 0.03 | approximately 75% | EtNBSe (3)>EtNBS (2)>EtNBA (1) | 2.76 | essentially quantitative | killing of cells ([1]; wash, 64 J/cm^2 of 652-nm light): > 99.9%; killing of cells ([5]; wash, 64 J/cm^2): more than 99%; killing of cells ([8]; 64 J/cm^2): > 98%
CCNc1cc2[o+]c3cc(N(CC)CC)ccc3nc2c2ccccc12 [Dye 1, 5-Ethylamino-9-diethylaminobenzo[a]phenoxazinium] | – | EtNBSe (3)>EtNBS (2)>EtNBA (1) | little or no toxicity in the dark | 660 | 632 | 0.27 | 0.003 | – | EtNBSe (3)>EtNBS (2)>EtNBA (1) | 2.69 | approximately 75% | killing of cells ([1]; wash, 80 J/cm^2 of 635-nm light): 95%; killing of cells ([5]; wash, 80 J/cm^2): 90%; killing of cells ([8]; 80 J/cm^2): > 97%; cell uptake (molecules per cell), comparison with EtNBSe (3) ([10]; 10 minute incubation, wash): significantly lower
CCN=c1cc2[se]c3cc(N(CC)CC)ccc3nc-2c2ccccc12 [Dye 3, 5-Ethylamino-9-diethylaminobenzo[a]phenoselenazinium chloride] | no significant difference in the two killing curves | EtNBSe (3)>EtNBS (2)>EtNBA (1) | – | 703 | 661 | 0.03 | 0.78 | essentially quantitative | EtNBSe (3)>EtNBS (2)>EtNBA (1) | – | essentially quantitative | killing of cells ([1]; wash, 8 J/cm^2 of 660-nm light): > 99.999%; killing of cells (logs) ([1]; wash, 8 J/cm^2 of 660-nm light): 5.5 logs; fraction of total dye added that was bound to the cells [2]: approximately 75%; comparison of killing curves with and without a wash [5]: bacteria washed free of incubating solution were actually killed slightly (but not significantly) more than those of the non-wash group; killing of cells ([5]; wash, 32 J/cm^2): > 99.9999%; killing of cells (logs) ([5]; wash, 32 J/cm^2): > 6 logs; killing of cells ([8]; 4 J/cm^2): more than 99%; logP ([9]; between 2-octanol and pH 7.4 buffered saline): 2.08
CN(C)c1ccc2nc3ccc(=[N+](C)C)cc-3sc2c1 [Methylene Blue] | – | – | – | – | – | – | – | – | – | – | – | quantum yield for 1O2 formation of the standard [11]: 0.50
